Values belong to the molecule of their own block, whether it stands above or below them.
Tests used:
[1] = system: Trypanosoma cruzi CL-B5 (DTU TcVI) epimastigotes; test: CL-B5 lacZ epimastigote susceptibility assay (CPRG); assay type: cell-based; settings: T. cruzi CL-B5 lacZ epimastigotes, 72 h, mean ± SD, n = 3
[2] = system: J774 cells; test: Unspecific cytotoxicity assay on J774 macrophages (resazurin); assay type: cell-based, mouse; settings: mean ± SD, n = 3; for CC50 at 48 h: mouse
[3] = system: L929 cells; test: Unspecific cytotoxicity assay on L929 fibroblasts (resazurin); assay type: cell-based; settings: mean ± SD, n = 3; for CC50 at 72 h: mouse
[4] = system: Trypanosoma cruzi CL-B5 amastigotes; test: CL-B5 lacZ intracellular amastigote susceptibility assay (CPRG); assay type: cell-based; settings: intracellular amastigotes in L929 cells, 7 days, mean ± SD, n = 3
[5] = system: Trypanosoma cruzi Y (DTU TcII) epimastigotes; test: Y strain epimastigote susceptibility assay (resazurin); assay type: cell-based; settings: T. cruzi Y strain epimastigotes, 48 h, mean ± SD, n = 3
[6] = system: hydrogenosome membrane potential of T. vaginalis; test: Hydrogenosomal membrane potential assay (JC-1); settings: Figure 3; 4 h; 51 and 63 at 100 µM, MTZ 24 µM, CCCP 50 µM
[7] = system: Trichomonas vaginalis; test: Trichomonacidal in vitro assay (resazurin); assay type: cell-based; settings: isolate JH31A#4, 24 h, brackets: 95% confidence interval
[8] = system: Vero cells; test: Unspecific cytotoxicity assay in Vero cells (resazurin); assay type: cell-based, African green monkey; settings: Vero cells, 24 h, brackets: 95% confidence interval; for CC50 at 24 h: African green monkey, Vero CCL-81 cells (kidney epithelial cells)

Structure (SMILES): O=C(Cn1ccnc1[N+](=O)[O-])NCc1ccccc1 [Benznidazole, benznidazole, reference compound]
IC50 ([1]; Trypanosoma cruzi): 25.3 ± 1.63 µM | CC50 at 48 h [2]: > 256 µM | CC50 at 72 h [3]: > 256 µM | IC50 ([4]; Trypanosoma cruzi, 168 h): 0.47 ± 0.09 µM | IC50 ([5]; Trypanosoma cruzi): 22.7 ± 1.82 µM

Structure (SMILES): N#CC(C#N)=NNc1cccc(Cl)c1 [CCCP, m-chlorocarbonylcyanide phenylhydrazone, reference compound]
JC-1 fluorescence distribution in trophozoites (fluorescence microscopy) [6]: provokes a disturbance in the hydrogenosome membrane potential

Structure (SMILES): COc1ccc(NC(=S)NN)cc1 [Compound 23]
IC50 ([1]; Trypanosoma cruzi): 53.5 ± 13 µM | CC50 at 48 h [2]: > 256 µM | CC50 at 72 h [3]: > 256 µM | IC50 ([7]; Trichomonas vaginalis, 24 h): 256 µM | IC50 ([5]; Trypanosoma cruzi): 59.9 ± 10.4 µM

Structure (SMILES): NNC(=S)Nc1ccc(F)cc1 [Compound 24]
IC50 ([1]; Trypanosoma cruzi): 58.8 ± 8.77 µM | CC50 at 48 h [2]: > 256 µM | CC50 at 72 h [3]: > 256 µM | IC50 ([7]; Trichomonas vaginalis, 24 h): 200 µM | IC50 ([5]; Trypanosoma cruzi): 97.3 ± 3.45 µM

Structure (SMILES): NNC(=S)Nc1ccc(Cl)cc1 [Compound 25]
IC50 ([1]; Trypanosoma cruzi): 44.2 ± 13.6 µM | CC50 at 72 h [3]: 67.7 ± 3.16 µM | IC50 ([7]; Trichomonas vaginalis, 24 h): 49.2 µM | CC50 at 24 h [8]: > 300 µM

Structure (SMILES): NNC(=S)Nc1ccc(I)cc1 [Compound 27]
IC50 ([1]; Trypanosoma cruzi): 49.8 ± 14.2 µM | CC50 at 72 h [3]: 51 ± 8.88 µM | IC50 ([7]; Trichomonas vaginalis, 24 h): 75.7 µM

Structure (SMILES): NNC(=S)Nc1ccccc1[N+](=O)[O-] [Compound 28]
IC50 ([1]; Trypanosoma cruzi): 44.1 ± 5.38 µM | CC50 at 72 h [3]: 210 ± 15.3 µM | IC50 ([7]; Trichomonas vaginalis, 24 h): > 300 µM

Structure (SMILES): NNC(=S)Nc1cccc([N+](=O)[O-])c1 [Compound 29]
IC50 ([1]; Trypanosoma cruzi): 79.9 ± 15.4 µM | CC50 at 72 h [3]: 206 ± 7.25 µM | IC50 ([7]; Trichomonas vaginalis, 24 h): 19.1 µM | CC50 at 24 h [8]: > 300 µM

Structure (SMILES): NNC(=S)Nc1ccc([N+](=O)[O-])cc1 [Compound 30]
IC50 ([1]; Trypanosoma cruzi): 72.5 ± 1.23 µM | CC50 at 72 h [3]: 23.6 ± 2.84 µM | IC50 ([7]; Trichomonas vaginalis, 24 h): 106 µM

Structure (SMILES): NNC(=S)Nc1cccc2ccccc12 [Compound 31]
IC50 [1]: 28.7 ± 4.61 µM | CC50 ([2]; 48 h): > 256 µM | CC50 ([3]; 72 h): > 256 µM | IC50 [7]: 30.2 µM | IC50 [4]: 39.7 ± 9.91 µM | IC50 [5]: 33.6 ± 5.72 µM | CC50 [8]: > 300 µM

Structure (SMILES): Oc1ccc(/C=N/NC(=S)Nc2ccccc2)cc1 [Compound 36]
IC50 ([1]; Trypanosoma cruzi): 70.9 ± 11 µM | CC50 at 72 h [3]: 46.29 ± 0.15 µM | IC50 ([7]; Trichomonas vaginalis, 24 h): 74 µM

IC50 ([5]; Trypanosoma cruzi): 85.1 ± 17.2 µM
Structure (SMILES): COc1ccc(/C=N/NC(=S)Nc2ccccc2)cc1 [Compound 37]
CC50 at 48 h [2]: > 256 µM | CC50 at 72 h [3]: > 256 µM | IC50 ([7]; Trichomonas vaginalis, 24 h): 167 µM

Structure (SMILES): Oc1ccc(/C=N/NC(=S)Nc2ccccc2)cc1O [Compound 38]
IC50 ([1]; Trypanosoma cruzi): 15.3 ± 2.22 µM | CC50 at 72 h [3]: 45.2 ± 0.58 µM | IC50 ([7]; Trichomonas vaginalis, 24 h): 88.6 µM

Structure (SMILES): Cc1ccc(NC(=S)N/N=C/c2ccc(O)cc2)cc1 [Compound 39]
IC50 ([1]; Trypanosoma cruzi): 39.6 ± 7.08 µM | CC50 at 72 h [3]: 61 ± 3.72 µM | IC50 ([7]; Trichomonas vaginalis, 24 h): 66.1 µM

Structure (SMILES): COc1ccc(/C=N/NC(=S)Nc2ccc(C)cc2)cc1 [Compound 40]
IC50 ([1]; Trypanosoma cruzi): > 256 µM | CC50 at 72 h [3]: > 256 µM | IC50 ([7]; Trichomonas vaginalis, 24 h): 226 µM

Structure (SMILES): Cc1ccc(NC(=S)N/N=C/c2ccc(O)c(O)c2)cc1 [Compound 41]
IC50 ([1]; Trypanosoma cruzi): 119 ± 7.68 µM | CC50 at 72 h [3]: 20 ± 1.87 µM | IC50 ([7]; Trichomonas vaginalis, 24 h): 80.6 µM

Structure (SMILES): COc1ccc(NC(=S)N/N=C/c2ccc(O)cc2)cc1 [Compound 42]
IC50 ([1]; Trypanosoma cruzi): 49.2 ± 9.97 µM | CC50 at 72 h [3]: 43.3 ± 16.6 µM | IC50 ([7]; Trichomonas vaginalis, 24 h): 64.8 µM

Structure (SMILES): COc1ccc(/C=N/NC(=S)Nc2ccc(OC)cc2)cc1 [Compound 43]
IC50 ([1]; Trypanosoma cruzi): 26.8 ± 2.68 µM | CC50 at 48 h [2]: > 256 µM | CC50 at 72 h [3]: > 256 µM | IC50 ([7]; Trichomonas vaginalis, 24 h): 258 µM | IC50 ([4]; Trypanosoma cruzi, 168 h): 39 ± 14.3 µM | IC50 ([5]; Trypanosoma cruzi): 55.6 ± 16.3 µM

Structure (SMILES): COc1ccc(/C=N/NC(=S)Nc2ccc(F)cc2)cc1 [Compound 44]
IC50 ([1]; Trypanosoma cruzi): > 256 µM | CC50 at 72 h [3]: > 256 µM | IC50 ([7]; Trichomonas vaginalis, 24 h): > 300 µM

Structure (SMILES): Oc1ccc(/C=N/NC(=S)Nc2ccc(F)cc2)cc1O [Compound 45]
IC50 ([1]; Trypanosoma cruzi): 97.4 ± 5.33 µM | CC50 at 72 h [3]: 30.5 ± 3.93 µM | IC50 ([7]; Trichomonas vaginalis, 24 h): 226 µM

Structure (SMILES): COc1ccc(/C=N/NC(=S)Nc2ccc(Cl)cc2)cc1 [Compound 46]
IC50 ([1]; Trypanosoma cruzi): 30.5 ± 4.1 µM | CC50 at 72 h [3]: 49.7 ± 3.76 µM | IC50 ([7]; Trichomonas vaginalis, 24 h): 32.3 µM | CC50 at 24 h [8]: > 300 µM
